Target: T1, purified human Factor XIa (Homo sapiens, UniProt P03951)
T1 construct: purchased Haematologic Technologies
Assay: Factor XIa enzyme inhibition assay (chromogenic substrate S-2366), Ki
Type: biochemical
Conditions: substrate S-2366, pH 7.4
How it was run: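 Purified human Factor XIa ([…] final) with chromogenic substrate S-2366 (0.0002-0.001 M) in 50 mM HEPES pH 7.4, 145 mM NaCl, 5 mM KCl, 0.1% PEG 8000. Velocities measured over 20-180 minutes with and without inhibitor; Ki derived assuming competitive inhibition, e.g. Ki=IC50/(1+S/Km).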

T1 sequence (P03951 388-625 limits assumed): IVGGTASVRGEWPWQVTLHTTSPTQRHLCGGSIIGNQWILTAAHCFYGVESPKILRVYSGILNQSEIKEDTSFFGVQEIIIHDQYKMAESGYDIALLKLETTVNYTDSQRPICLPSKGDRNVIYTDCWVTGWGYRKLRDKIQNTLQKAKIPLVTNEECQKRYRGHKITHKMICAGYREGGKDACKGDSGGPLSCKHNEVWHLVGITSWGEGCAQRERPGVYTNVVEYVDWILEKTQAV
T1 sequence (P03951 19-387 partner limits assumed): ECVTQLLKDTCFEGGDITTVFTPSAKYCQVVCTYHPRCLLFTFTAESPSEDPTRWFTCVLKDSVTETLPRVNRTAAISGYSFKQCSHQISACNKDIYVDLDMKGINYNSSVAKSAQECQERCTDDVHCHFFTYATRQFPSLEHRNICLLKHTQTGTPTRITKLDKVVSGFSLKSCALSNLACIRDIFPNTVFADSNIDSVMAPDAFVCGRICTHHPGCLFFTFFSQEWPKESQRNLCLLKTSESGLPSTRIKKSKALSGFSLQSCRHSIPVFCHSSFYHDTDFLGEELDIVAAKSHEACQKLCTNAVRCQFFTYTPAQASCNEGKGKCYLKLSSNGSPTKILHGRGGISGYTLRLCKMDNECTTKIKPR

Row | Compound | Ki [µM]
1 | NC(=O)CNC(=O)[C@H](Cc1ccccc1)n1cnc(-c2cc(Cl)ccc2-n2cc(Cl)nn2)cc1=O [Example 62, (S)-N-(2-amino-2-oxoethyl)-2-(4-(5-chloro-2-(4-chloro-1H-1,2,3-triazol-1-yl)phenyl)-6-oxopyrimidin-1(6H)-yl)-3-phenylpropanamide] | 8.98
2 | CN(C)C1CCN(C(=O)[C@H](Cc2ccccc2)n2cnc(-c3cc(Cl)ccc3-n3cc(Cl)nn3)cc2=O)CC1 [Example 63, (S)-6-(5-chloro-2-(4-chloro-1H-1,2,3-triazol-1-yl)phenyl)-3-(1-(4-(dimethylamino)piperidin-1-yl)-1-oxo-3-phenylpropan-2-yl)pyrimidin-4(3H)-one] | 7.5
3 | NS(=O)(=O)c1ccc(CNC(=O)[C@H](Cc2ccccc2)n2cnc(-c3cc(Cl)ccc3-n3cc(Cl)nn3)cc2=O)cc1 [Example 64, (S)-2-(4-(5-chloro-2-(4-chloro-1H-1,2,3-triazol-1-yl)phenyl)-6-oxopyrimidin-1(6H)-yl)-3-phenyl-N-(4-sulfamoylbenzyl)propanamide] | 1.27
4 | CCOC(=O)c1cn2c(n1)CN(C(=O)[C@H](Cc1ccccc1)n1cnc(-c3cc(Cl)ccc3-n3cc(Cl)nn3)cc1=O)CC2 [Example 65, ethyl (S)-7-(2-(4-(5-chloro-2-(4-chloro-1H-1,2,3-triazol-1-yl)phenyl)-6-oxopyrimidin-1(6H)-yl)-3-phenylpropanoyl)-5,6,7,8-tetrahydroimidazo[1,2-a]pyrazine-2-carboxylate] | 4.94
5 | CN1CCC2(CCCN(C(=O)[C@H](Cc3ccccc3)n3cnc(-c4cc(Cl)ccc4-n4cc(Cl)nn4)cc3=O)C2)C1=O (stereo partly drawn) [Example 66, 7-((S)-2-(4-(5-chloro-2-(4-chloro-1H-1,2,3-triazol-1-yl)phenyl)-6-oxopyrimidin-1(6H)-yl)-3-phenylpropanoyl)-2-methyl-2,7-diazaspiro[4.5]decan-1-one] | 12.2
6 | CC(C)c1nnc2n1CCN(C(=O)[C@H](Cc1ccccc1)n1cnc(-c3cc(Cl)ccc3-n3cc(Cl)nn3)cc1=O)C2 [Example 67, (S)-6-(5-chloro-2-(4-chloro-1H-1,2,3-triazol-1-yl)phenyl)-3-(1-(3-isopropyl-5,6-dihydro-[1,2,4]triazolo[4,3-a]pyrazin-7(8H)-yl)-1-oxo-3-phenylpropan-2-yl)pyrimidin-4(3H)-one] | 7.37
7 | CN1CCN(C(=O)[C@H](Cc2ccccc2)n2cnc(-c3cc(Cl)ccc3-n3cc(Cl)nn3)cc2=O)CC1 [Example 68, (S)-6-(5-chloro-2-(4-chloro-1H-1,2,3-triazol-1-yl)phenyl)-3-(1-(4-methylpiperazin-1-yl)-1-oxo-3-phenylpropan-2-yl)pyrimidin-4(3H)-one] | 4.41
8 | O=C(NCCN1CCCC1)[C@H](Cc1ccccc1)n1cnc(-c2cc(Cl)ccc2-n2cc(Cl)nn2)cc1=O [Example 69, (S)-2-(4-(5-chloro-2-(4-chloro-1H-1,2,3-triazol-1-yl)phenyl)-6-oxopyrimidin-1(6H)-yl)-3-phenyl-N-(2-(pyrrolidin-1-yl)ethyl)propanamide] | 7.62
9 | O=C(NCc1ccccn1)[C@H](Cc1ccccc1)n1cnc(-c2cc(Cl)ccc2-n2cc(Cl)nn2)cc1=O [Example 70, (S)-2-(4-(5-chloro-2-(4-chloro-1H-1,2,3-triazol-1-yl)phenyl)-6-oxopyrimidin-1(6H)-yl)-3-phenyl-N-(pyridin-2-ylmethyl)propanamide] | 0.931
10 | O=C([C@H](Cc1ccccc1)n1cnc(-c2cc(Cl)ccc2-n2cc(Cl)nn2)cc1=O)N1CCc2ccccc2C1 [Example 71, (S)-6-(5-chloro-2-(4-chloro-1H-1,2,3-triazol-1-yl)phenyl)-3-(1-(3,4-dihydroisoquinolin-2(1H)-yl)-1-oxo-3-phenylpropan-2-yl)pyrimidin-4(3H)-one] | 0.79
11 | O=C([C@H](Cc1ccccc1)n1cnc(-c2cc(Cl)ccc2-n2cc(Cl)nn2)cc1=O)N1CCC(Cc2ccccc2)CC1 [Example 72, (S)-3-(1-(4-benzylpiperidin-1-yl)-1-oxo-3-phenylpropan-2-yl)-6-(5-chloro-2-(4-chloro-1H-1,2,3-triazol-1-yl)phenyl)pyrimidin-4(3H)-one] | 13.3
12 | O=C([C@H](Cc1ccccc1)n1cnc(-c2cc(Cl)ccc2-n2cc(Cl)nn2)cc1=O)N1CCC(c2ccccc2)CC1 [Example 73, (S)-6-(5-chloro-2-(4-chloro-1H-1,2,3-triazol-1-yl)phenyl)-3-(1-oxo-3-phenyl-1-(4-phenylpiperidin-1-yl)propan-2-yl)pyrimidin-4(3H)-one] | 4.44
13 | O=C(NCc1ccncc1)[C@H](Cc1ccccc1)n1cnc(-c2cc(Cl)ccc2-n2cc(Cl)nn2)cc1=O [Example 74, (S)-2-(4-(5-chloro-2-(4-chloro-1H-1,2,3-triazol-1-yl)phenyl)-6-oxopyrimidin-1(6H)-yl)-3-phenyl-N-(pyridin-4-ylmethyl)propanamide] | 0.552
14 | COc1ccc(CNC(=O)[C@H](Cc2ccccc2)n2cnc(-c3cc(Cl)ccc3-n3cc(Cl)nn3)cc2=O)cc1 [Example 75, (S)-2-(4-(5-chloro-2-(4-chloro-1H-1,2,3-triazol-1-yl)phenyl)-6-oxopyrimidin-1(6H)-yl)-N-(4-methoxybenzyl)-3-phenylpropanamide] | 1.22
15 | O=C(NCc1ccc(Cl)cc1)[C@H](Cc1ccccc1)n1cnc(-c2cc(Cl)ccc2-n2cc(Cl)nn2)cc1=O [Example 76, (S)-2-(4-(5-chloro-2-(4-chloro-1H-1,2,3-triazol-1-yl)phenyl)-6-oxopyrimidin-1(6H)-yl)-N-(4-chlorobenzyl)-3-phenylpropanamide] | 1.22
16 | O=C(NCc1cccnc1)[C@H](Cc1ccccc1)n1cnc(-c2cc(Cl)ccc2-n2cc(Cl)nn2)cc1=O [Example 77, (S)-2-(4-(5-chloro-2-(4-chloro-1H-1,2,3-triazol-1-yl)phenyl)-6-oxopyrimidin-1(6H)-yl)-3-phenyl-N-(pyridin-3-ylmethyl)propanamide] | 1.45
17 | O=C([C@H](Cc1ccccc1)n1cnc(-c2cc(Cl)ccc2-n2cc(Cl)nn2)cc1=O)N1CCOCC1 [Example 78, (S)-6-(5-chloro-2-(4-chloro-1H-1,2,3-triazol-1-yl)phenyl)-3-(1-morpholino-1-oxo-3-phenylpropan-2-yl)pyrimidin-4(3H)-one] | 4.45
18 | Cn1ncc2cc(CNC(=O)[C@H](Cc3ccccc3)n3cnc(-c4cc(Cl)ccc4-n4cc(Cl)nn4)cc3=O)ccc21 [Example 79, (S)-2-(4-(5-chloro-2-(4-chloro-1H-1,2,3-triazol-1-yl)phenyl)-6-oxopyrimidin-1(6H)-yl)-N-((1-methyl-1H-indazol-5-yl)methyl)-3-phenylpropanamide] | 0.63
19 | CC(C)c1cc(CNC(=O)[C@H](Cc2ccccc2)n2cnc(-c3cc(Cl)ccc3-n3cc(Cl)nn3)cc2=O)on1 [Example 80, (S)-2-(4-(5-chloro-2-(4-chloro-1H-1,2,3-triazol-1-yl)phenyl)-6-oxopyrimidin-1(6H)-yl)-N-((3-isopropylisoxazol-5-yl)methyl)-3-phenylpropanamide] | 3.78
20 | O=C([C@H](Cc1ccccc1)n1cnc(-c2cc(Cl)ccc2-n2cc(Cl)nn2)cc1=O)N1CCC(O)CC1 [Example 81, (S)-6-(5-chloro-2-(4-chloro-1H-1,2,3-triazol-1-yl)phenyl)-3-(1-(4-hydroxypiperidin-1-yl)-1-oxo-3-phenylpropan-2-yl)pyrimidin-4(3H)-one] | 4.41

— patent publication US10336730B2, “Substituted glycine derived FXIA inhibitors” (BRISTOL-MYERS SQUIBB COMPANY, priority 2015, dated 2019)
